PMC5719405, “Sex-related pharmacokinetic differences and mechanisms of metapristone (RU486 metabolite)” (Scientific Reports, 2017)
Where two headings read alike, the source gives them in different places.

What was measured:
[1] = cited from earlier work
[2] = Metapristone metabolism in rat liver microsomes in the presence of specific CYP450 inhibitors; details: inhibitor 10 µM, metapristone 9 µM, male or female rat liver microsomes, 120 min
[3] = set-up: method as in PMID 22210121; details: cited from earlier work

Row | Structure (SMILES) | effect of CYP inhibitor on metabolism rate of metapristone versus controls [2] | other results
1 | CCN(CC)CCCC(C)Nc1ccnc2cc(Cl)ccc12 (centres unmarked) [Chloroquine] | – | V d ([1]; literature example, no reference given): 15,000 L
2 | CC[C@H]1OC(=O)[C@@](C)(F)C(=O)[C@H](C)[C@@H](O[C@@H]2O[C@H](C)C[C@H](N(C)C)[C@H]2O)[C@](C)(OC)C[C@@H](C)C(=O)[C@H](C)[C@H]2N(CCCCn3cc(-c4cccc(N)c4)nn3)C(=O)O[C@]12C [Solithromycin] | – | V d [1]: > 500 L
3 | CCCn1c(=O)c2[nH]c(C34CC5CC(CC3C5)C4)nc2n(CCC)c1=O [Rolofylline] | – | V d [1]: 239 L
4 | CC(=O)N1CCN(c2ccc(OCC3COC(Cn4ccnc4)(c4ccc(Cl)cc4Cl)O3)cc2)CC1 (centres unmarked) [ketoconazole] | significantly prevented metapristone from degradation | –
5 | Nc1ccc(S(=O)(=O)Nc2ccnn2-c2ccccc2)cc1 [sulfaphenazole] | No significant differences | –
6 | C=C[C@H]1C[N@@]2CC[C@H]1C[C@@H]2[C@@H](O)c1ccnc2ccc(OC)cc12 [quinidine] | No significant differences | –
7 | O=c1cc(-c2ccccc2)oc2c1ccc1ccccc12 [α-naphthoflavone] | significantly prevented metapristone from degradation | –
8 | CC#C[C@]1(O)CC[C@H]2[C@@H]3CCC4=CC(=O)CCC4=C3[C@@H](c3ccc(N(C)C)cc3)C[C@@]21C [mifepristone] | – | plasma protein binding rate [3]: 90%
